Here are results for eight compounds from patent publication US12441768B2, “Compositions and methods for treating endometriosis” (EndoMet Biosciences, Inc., priority 2018, dated 2025).

*1 amine or outer side, *2 acyl side, *3 side chain or, on linkers, in order; H or OH if unused. Where a SMILES comes first, the peptide text is derived from it. [ ]: non-standard residue; d: D form. ξ: configuration not given here. X4 = CC[C@@H](C)C(N[*:1])C(=O)[*:2]; ξW = NC(Cc1c[nH]c2ccccc12)C(=O)O; ξL = CC(C)CC(N)C(=O)O; ξC = NC(CS)C(=O)O; βAla = NCCC(=O)O

This experiment deals with T1, β-catenin (Homo sapiens, UniProt P35222).
T1 sequence (P35222 1-781): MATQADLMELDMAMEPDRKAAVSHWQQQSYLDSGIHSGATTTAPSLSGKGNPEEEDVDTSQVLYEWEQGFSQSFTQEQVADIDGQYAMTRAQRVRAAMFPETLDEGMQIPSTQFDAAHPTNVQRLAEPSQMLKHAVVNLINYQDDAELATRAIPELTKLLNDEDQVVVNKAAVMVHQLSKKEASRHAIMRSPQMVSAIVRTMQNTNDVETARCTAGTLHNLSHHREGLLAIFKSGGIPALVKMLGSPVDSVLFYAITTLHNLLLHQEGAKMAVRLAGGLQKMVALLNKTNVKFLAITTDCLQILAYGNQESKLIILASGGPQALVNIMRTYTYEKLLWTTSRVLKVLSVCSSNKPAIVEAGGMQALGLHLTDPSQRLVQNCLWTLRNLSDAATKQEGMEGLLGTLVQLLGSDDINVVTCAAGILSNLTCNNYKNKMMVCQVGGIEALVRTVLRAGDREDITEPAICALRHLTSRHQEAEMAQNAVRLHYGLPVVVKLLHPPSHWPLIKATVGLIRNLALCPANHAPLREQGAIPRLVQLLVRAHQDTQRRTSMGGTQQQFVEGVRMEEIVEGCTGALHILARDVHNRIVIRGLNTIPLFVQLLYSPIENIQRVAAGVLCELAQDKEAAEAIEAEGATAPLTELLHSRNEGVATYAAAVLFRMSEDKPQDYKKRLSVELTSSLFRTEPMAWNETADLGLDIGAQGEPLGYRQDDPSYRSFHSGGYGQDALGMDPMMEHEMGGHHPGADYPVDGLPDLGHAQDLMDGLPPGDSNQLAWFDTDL
The experiment can be described thus: KD50 measurement using competitive fluorescence polarization (FP) with labelled TCF4. It counts as binding. The settings on record: fluorescence polarization, β-catenin; for Kd: read-out: β-Cat FP KD. An excerpt:
Fluorescence polarization (FP) is another method used to analyze protein-ligand interactions. This methodology measures the change in fluorescence light emitted by a labelled compound free vs. conjugated to another compound in solution. Upon binding of the fluorescent molecule to a complex, polarization increases because of limited rotation of the fluorescent tracer. Competitive FP is often utilized in drug screens as it is formatted for high throughput screens in a plate format. This immunoassay is performed by introducing a non-conjugated drug to compete for binding to the labelled competitor-ligand complex, leading to a reduction in polarization. TCF4 protein is utilized for the competitive assay as (1) this protein influences the full activation of the Wnt pathway and (2) shares homology with the β-catenin inhibitors. Exemplary methodology is described in Example 13. Data were analyzed and plotted in Microsoft Excel (Microsoft, Redmond, WA).
5 nM of labelled TCF4 protein was added to solution of 100 nM of β-catenin and incubated at room temperature in 96-well plates (Greiner 96 Flat transparent plates, Millipore Sigma, Carlsbad CA). Varying concentrations of β-catenin inhibitor candidate (SEQ ID NO: 404) were then added in a series of serial dilutions from 10 nM to 30 uM of inhibitor in different wells of the plate. The fluorescence polarization was read by Infinite M1000 (Tecan, Baldwin Park CA) at excitation wavelength of 470 nm and measured at emission wavelength of 520 nm. […] The experiments were performed three times and data were analyzed and plotted in Microsoft Excel (Microsoft, Redmond, WA).
(In fluorescence polarisation assays a small probe gives low polarisation when free and higher when bound to something large.)

With `CC[C@H](C)[C@@H]1NC(=O)[C@H](CC(C)C)NC(=O)[C@H](Cc2ccccc2)NC(=O)[C@H](Cc2c[nH]c3ccccc23)NC(=O)[C@@H](N)CCCCNC(=O)CC[C@@H](C(=O)NCC(=O)O)NC(=O)[C@H](Cc2ccccc2)NC(=O)[C@H](CO)NC1=O` [compound 227] (HELM PEPTIDE1{K.W.F.L.I.S.F.E.G}$PEPTIDE1,PEPTIDE1,1:R3-8:R3$$$V2.0), the “β-Cat FP Hill slope” value was 0.5 and the Kd (as a rule, the equilibrium constant for the complex coming apart) fell in the range of 1 to 10 µM.
The matching figures for `CC[C@H](C)[C@@H]1NC(=O)[C@H](CC(C)C)NC(=O)[C@H](Cc2ccccc2)NC(=O)[C@H](Cc2c[nH]c3ccccc23)NC(=O)[C@@H](N)CCCCNC(=O)CC[C@@H](C(=O)N[C@@H](Cc2c[nH]c3ccccc23)C(=O)NCC(=O)O)NC(=O)[C@H](CO)NC1=O` [compound 228] (HELM PEPTIDE1{K.W.F.L.I.S.E.W.G}$PEPTIDE1,PEPTIDE1,1:R3-7:R3$$$V2.0): 0.2 and over 30 µM.
The matching figures for `CC[C@H](C)[C@@H]1NC(=O)[C@H](CC(C)C)NC(=O)[C@H](Cc2ccccc2)NC(=O)[C@H](Cc2c[nH]c3ccccc23)NC(=O)[C@@H](N)CCCCNC(=O)CC[C@@H](C(=O)N[C@@H](Cc2ccccc2)C(=O)N[C@@H](Cc2c[nH]c3ccccc23)C(=O)NCC(=O)O)NC1=O` [compound 229] (HELM PEPTIDE1{K.W.F.L.I.E.F.W.G}$PEPTIDE1,PEPTIDE1,1:R3-6:R3$$$V2.0): 0.43 and 1 to 10 µM.
The like results for `CC[C@H](C)[C@@H]1NC(=O)[C@H](CC(C)C)NC(=O)[C@@H](NC(=O)[C@H](Cc2c[nH]c3ccccc23)NC(=O)[C@@H](N)CCSC)CCCCNC(=O)CC[C@@H](C(=O)N[C@@H](Cc2ccccc2)C(=O)N[C@@H](Cc2c[nH]c3ccccc23)C(=O)NCC(=O)O)NC1=O` [compound 230] (HELM PEPTIDE1{M.W.K.L.I.E.F.W.G}$PEPTIDE1,PEPTIDE1,3:R3-6:R3$$$V2.0) were, in that order, 0.77 and under 0.4 µM.
With `CC(C)C[C@@H]1NC(=O)[C@H](Cc2ccccc2)NC(=O)[C@H](Cc2c[nH]c3ccccc23)NC(=O)[C@@H](N)CCCCNC(=O)CC[C@@H](C(=O)N[C@@H](CO)C(=O)N[C@@H](Cc2ccccc2)C(=O)N[C@@H](Cc2c[nH]c3ccccc23)C(=O)NCC(=O)O)NC1=O` [compound 231] (HELM PEPTIDE1{K.W.F.L.E.S.F.W.G}$PEPTIDE1,PEPTIDE1,1:R3-5:R3$$$V2.0), the “β-Cat FP Hill slope” value is 0.7 and the Kd is 1 to 10 µM.
The matching figures for `CC[C@H](C)[C@H](NC(=O)[C@H](CC(C)C)NC(=O)[C@@H]1CCC(=O)NCCCC[C@H](N)C(=O)N[C@@H](Cc2c[nH]c3ccccc23)C(=O)N1)C(=O)N[C@@H](CO)C(=O)N[C@@H](Cc1ccccc1)C(=O)N[C@@H](Cc1c[nH]c2ccccc12)C(=O)NCC(=O)O` [compound 232] (HELM PEPTIDE1{K.W.E.L.I.S.F.W.G}$PEPTIDE1,PEPTIDE1,1:R3-3:R3$$$V2.0): 2.73 and 1 to 10 µM.
On to `CC[C@H](C)[C@@H]1NC(=O)[C@H](CC(C)C)NC(=O)[C@H](Cc2ccccc2)NC(=O)[C@H](Cc2c[nH]c3ccccc23)NC(=O)[C@@H](N)CC(=O)NCCCC[C@@H](C(=O)O)NC(=O)[C@H](Cc2c[nH]c3ccccc23)NC(=O)[C@H](C)NC(=O)[C@H](CS)NC1=O` [compound 233] (HELM PEPTIDE1{D.W.F.L.I.C.A.W.K}$PEPTIDE1,PEPTIDE1,1:R3-9:R3$$$V2.0), for which the “β-Cat FP Hill slope” value is given as 0.74 and the Kd was under 0.4 µM.
For the compound `CC[C@@H](C)C(NC(=O)C(CC(C)C)NC(=O)[C@H](Cc1ccccc1)NC(=O)C(Cc1c[nH]c2ccccc12)NC(=O)[C@H](CCCCN)NC(C)=O)C(=O)NC(CS)C(=O)N[C@@H](C)C(=O)NC(Cc1c[nH]c2ccccc12)C(=O)NCCC(=O)O` (stereo partly drawn) [compound 235] (Ac-K[ξW]F[ξL][X4][ξC]A[ξW][βAla]-OH), the Kd was over 30 µM.
